Measured values published in ChEMBL document CHEMBL2413072, “Synthesis and in vitro anticancer studies of novel C-2 arylidene congeners of lantadenes” (2013).

Tests used:
Format in all cases: functional
A498 = test: Growth inhibition of human A498 cells by sulforhodamine B assay
OVCAR-3 = test: Growth inhibition of human OVCAR3 cells by sulforhodamine B assay
MDA-MB-435 = test: Growth inhibition of human MDA-MB-435 cells by sulforhodamine B assay
U-251 [1] = test: Growth inhibition of human U251 cells by sulforhodamine B assay
SNB-19 = test: Growth inhibition of human SNB19 cells by sulforhodamine B assay
T47D = test: Growth inhibition of human T47D cells assessed as cell growth at 10^-4 M by sulforhodamine B assay; settings: read-out: Activity
[2] = Growth inhibition of human Hs 578T cells assessed as cell growth at 10^-4 M by sulforhodamine B assay; settings: read-out: Activity
UACC-62 = test: Growth inhibition of human UACC62 cells assessed as cell growth at 10^-4 M by sulforhodamine B assay; settings: read-out: Activity
SF-539 = test: Growth inhibition of human SF539 cells assessed as cell growth at 10^-4 M by sulforhodamine B assay; settings: read-out: Activity
HCT-15 = test: Growth inhibition of human HCT15 cells assessed as cell growth at 10^-4 M by sulforhodamine B assay; settings: read-out: Activity
TK-10 = test: Growth inhibition of human TK10 cells assessed as cell growth at 10^-6 M by sulforhodamine B assay; settings: read-out: Activity
OVCAR-8 [3] = test: Growth inhibition of human OVCAR8 cells assessed as cell growth at 10^-6 M by sulforhodamine B assay; settings: read-out: Activity
SK-MEL-2 = test: Growth inhibition of human SK-MEL-2 cells assessed as cell growth at 10^-6 M by sulforhodamine B assay; settings: read-out: Activity
M14 = test: Growth inhibition of human M14 cells assessed as cell growth at 10^-6 M by sulforhodamine B assay; settings: read-out: Activity
U-251 [4] = test: Growth inhibition of human U251 cells assessed as cell growth at 10^-6 M by sulforhodamine B assay; settings: read-out: Activity
SNB-75 = test: Growth inhibition of human SNB75 cells assessed as cell growth at 10^-6 M by sulforhodamine B assay; settings: read-out: Activity
COLO 205 = test: Growth inhibition of human COLO205 cells assessed as cell growth at 10^-6 M by sulforhodamine B assay; settings: read-out: Activity
NCI-H226 [5] = test: Growth inhibition of human NCI-H226 cells assessed as cell growth at 10^-6 M by sulforhodamine B assay; settings: read-out: Activity
PC-3 = test: Growth inhibition of human PC3 cells assessed as cell growth at 10^-7 M by sulforhodamine B assay; settings: read-out: Activity
CAKI-1 = test: Growth inhibition of human CAKI-1 cells assessed as cell growth at 10^-7 M by sulforhodamine B assay; settings: read-out: Activity
786-0 = test: Growth inhibition of human 786-0 cells assessed as cell growth at 10^-7 M by sulforhodamine B assay; settings: read-out: Activity
OVCAR-5 = test: Growth inhibition of human OVCAR5 cells assessed as cell growth at 10^-7 M by sulforhodamine B assay; settings: read-out: Activity
NCI-H226 [6] = test: Growth inhibition of human NCI-H226 cells assessed as cell growth at 10^-7 M by sulforhodamine B assay; settings: read-out: Activity
SR = test: Growth inhibition of human SR cells assessed as cell growth at 10^-7 M by sulforhodamine B assay; settings: read-out: Activity
[7] = Growth inhibition of human Hs 578T cells assessed as cell growth at 10^-8 M by sulforhodamine B assay; settings: read-out: Activity
RXF 393 = test: Growth inhibition of human RXF393 cells assessed as cell growth at 10^-8 M by sulforhodamine B assay; settings: read-out: Activity
OVCAR-8 [8] = test: Growth inhibition of human OVCAR8 cells assessed as cell growth at 10^-8 M by sulforhodamine B assay; settings: read-out: Activity
[9] = read-out: pLC50 (the source's name) (converted)
[10] = read-out: LC50 (the source's name)

Structure (SMILES): CC1(C)C[C@@H](O)[C@]2(C(=O)O)CC[C@]3(C)C(=CC[C@@H]4[C@@]5(C)C/C(=C\C=C\c6ccccc6)C(=O)C(C)(C)[C@@H]5CC[C@]43C)[C@@H]2C1
- GI50 (A498; read-out: pGI50 (converted)): 2.57 µM
- CC50 (A498; [9]): 35.5 µM
- TGI (A498; read-out: pTGI (converted)): 11.5 µM
- GI50 (OVCAR-3; read-out: GI50): 2.04 µM
- CC50 (OVCAR-3; [10]): 14.2 µM
- TGI (OVCAR-3; read-out: TGI): 4.81 µM
- GI50 (OVCAR-3; read-out: pGI50 (converted)): 2.04 µM
- CC50 (OVCAR-3; [9]): 14.1 µM
- TGI (OVCAR-3; read-out: pTGI (converted)): 4.79 µM
- GI50 (MDA-MB-435; read-out: GI50): 3.28 µM
- CC50 (MDA-MB-435; [10]): > 100 µM
- TGI (MDA-MB-435; read-out: TGI): 14.4 µM
- GI50 (MDA-MB-435; read-out: pGI50 (converted)): 3.31 µM
- CC50 (MDA-MB-435; [9]): > 100 µM
- TGI (MDA-MB-435; read-out: pTGI (converted)): 14.5 µM
- GI50 (U-251 [1]; read-out: GI50): 2.58 µM
- CC50 (U-251 [1]; [10]): 43.2 µM
- TGI (U-251 [1]; read-out: TGI): 10.1 µM
- GI50 (U-251 [1]; read-out: pGI50 (converted)): 2.57 µM
- CC50 (U-251 [1]; [9]): 43.7 µM
- TGI (U-251 [1]; read-out: pTGI (converted)): 10.2 µM
- GI50 (SNB-19; read-out: GI50): 4.03 µM
- CC50 (SNB-19; [10]): 44.5 µM
- TGI (SNB-19; read-out: TGI): 16.5 µM
- GI50 (SNB-19; read-out: pGI50 (converted)): 4.07 µM
- CC50 (SNB-19; [9]): 44.7 µM
- TGI (SNB-19; read-out: pTGI (converted)): 16.6 µM
- growth at 100 µM (T47D): -45%
- growth at 100 µM [2]: -35%
- growth at 100 µM (UACC-62): -96%
- growth at 100 µM (SF-539): -90%
- growth at 100 µM (HCT-15): -80%
- growth at 1 µM (TK-10): 102%
- growth at 1 µM (OVCAR-8 [3]): 93%
- growth at 1 µM (SK-MEL-2): 100%
- growth at 1 µM (M14): 91%
- growth at 1 µM (U-251 [4]): 85%
- growth at 1 µM (SNB-75): 79%
- growth at 1 µM (COLO 205): 108%
- growth at 1 µM (NCI-H226 [5]): 83%
- growth at 0.1 µM (PC-3): 96%
- growth at 0.1 µM (CAKI-1): 97%
- growth at 0.1 µM (786-0): 100%
- growth at 0.1 µM (OVCAR-5): 92%
- growth at 0.1 µM (NCI-H226 [6]): 92%
- growth at 0.1 µM (SR): 100%
- growth at 0.01 µM [7]: 97%
- growth at 0.01 µM (RXF 393): 94%
- growth at 0.01 µM (OVCAR-8 [8]): 95%
